Consider 47 molecules from article PMC7589200, “Identification of Putative Non-Substrate-Based XT-I Inhibitors by Natural Product Library Screening” (Biomolecules, 2020).

Where a name gives a salt, the structure may show the parent alone.

This assay addresses T1, recombinant human XT-I (Homo sapiens, UniProt Q86Y38).
T1 sequence (Q86Y38 252-959 limits assumed): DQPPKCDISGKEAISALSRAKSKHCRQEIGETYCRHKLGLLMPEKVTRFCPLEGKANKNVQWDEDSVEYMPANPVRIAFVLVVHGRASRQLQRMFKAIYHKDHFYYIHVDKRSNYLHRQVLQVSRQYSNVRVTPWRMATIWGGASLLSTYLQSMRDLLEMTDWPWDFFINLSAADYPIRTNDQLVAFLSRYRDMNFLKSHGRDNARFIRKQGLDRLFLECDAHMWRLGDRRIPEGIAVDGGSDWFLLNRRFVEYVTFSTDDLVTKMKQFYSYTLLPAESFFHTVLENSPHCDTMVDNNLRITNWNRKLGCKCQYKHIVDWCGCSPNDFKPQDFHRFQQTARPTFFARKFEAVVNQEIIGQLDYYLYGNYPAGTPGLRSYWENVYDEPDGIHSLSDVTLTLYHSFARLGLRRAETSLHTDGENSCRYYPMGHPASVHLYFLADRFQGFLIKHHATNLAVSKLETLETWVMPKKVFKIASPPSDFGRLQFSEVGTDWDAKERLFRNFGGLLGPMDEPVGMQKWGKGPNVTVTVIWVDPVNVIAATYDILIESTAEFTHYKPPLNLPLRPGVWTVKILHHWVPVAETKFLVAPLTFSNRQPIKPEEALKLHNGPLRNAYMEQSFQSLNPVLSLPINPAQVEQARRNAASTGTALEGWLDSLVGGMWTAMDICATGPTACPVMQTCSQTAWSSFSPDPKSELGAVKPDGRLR
Put plainly: NP library inhibitor screening, UPLC/ESI-MS/MS XT-I assay. Type of assay: biochemical. As to conditions: Table S1; 50 μM inhibitor; relative to negative control containing DMSO; technical duplicates.
Turning to `CC[C@]1(O)C[C@H]2CN(CCc3c([nH]c4ccccc34)[C@@](C(=O)OC)(c3cc4c(cc3OC)N(C=O)[C@H]3[C@@](O)(C(=O)OC)[C@H](OC(C)=O)[C@]5(CC)C=CCN6CC[C@]43[C@@H]65)C2)C1` [Compound 35, Vincristine sulfate], the remaining activity (in general, the signal under treatment as a percentage of the control signal) at 50 µM worked out at 87%.

For the molecule `OC(Cn1cncn1)(Cn1cncn1)c1ccc(F)cc1F` [Compound 36, Fluconazole], the remaining activity at 50 µM came out at 75%. The same measure, in the same setting: under `Oc1ccc(/C=C/c2cc(O)cc(O)c2)cc1` [Compound 37, Resveratrol] stands 51%; under `COC(=O)[C@H]1[C@H]2C[C@@H]3c4[nH]c5cc(OC)ccc5c4CCN3C[C@H]2C[C@@H](OC(=O)c2cc(OC)c(OC)c(OC)c2)[C@@H]1OC` [Compound 38, Reserpine], 89%. Same read-out and setting: with `C[C@H](CCC(=O)O)[C@H]1CC[C@H]2[C@@H]3[C@@H](O)C[C@@H]4C[C@H](O)CC[C@]4(C)[C@H]3CC[C@]12C` [Compound 39, Ursodiol] the figure was 98%; with `O=C(N[C@H](CO)[C@H](O)c1ccc([N+](=O)[O-])cc1)C(Cl)Cl` [Compound 40, Chloramphenicol], 87%. Still for that read-out and setting: under `CO[C@H]1/C=C/O[C@@]2(C)Oc3c(C)c(O)c4c(O)c(c(/C=N/N5CCN(C)CC5)c(O)c4c3C2=O)NC(=O)/C(C)=C\C=C\[C@H](C)[C@H](O)[C@@H](C)[C@@H](O)[C@@H](C)[C@H](OC(C)=O)[C@@H]1C` [Compound 41, Rifampin] stands 77%. `Nc1nc2c(ncn2COCCO)c(=O)[nH]1` [Compound 42, Aciclovir]: the remaining activity at 50 µM was 71%. The same measure, in the same setting: with `C[C@@H]1CN(c2c(F)c(N)c3c(=O)c(C(=O)O)cn(C4CC4)c3c2F)C[C@H](C)N1` [Compound 43, Sparfloxacin] the figure was 89%. As for `C[C@@H]1[C@H](O)[C@@H](C)/C=C/C=C/CC/C=C/C=C/C=C/C=C/[C@H](O[C@H]2O[C@@H](C)[C@H](O)[C@@H](N)[C@H]2O)C[C@@H]2O[C@](O)(C[C@@H](O)[C@H](O)CC[C@@H](O)C[C@@H](O)C[C@@H](O)CC(=O)O[C@H]1C)C[C@H](O)[C@H]2C(=O)O` [Compound 44, Nystatin (Fungicidin)], the “XT-I Activity [%]” value was determined as 52%. As for `O=[N+]([O-])c1cn2c(n1)OC[C@@H](OCc1ccc(OC(F)(F)F)cc1)C2` [Compound 45, PA-824], the remaining activity at 50 µM is 75%. Take `C[C@H]1O[C@H](O[C@H]2[C@H](O)[C@@H](O)[C@@H](O[C@H]3[C@H](O)[C@@H](O)C(O)O[C@@H]3CO)O[C@@H]2CO)[C@H](O)[C@@H](O)[C@@H]1N[C@H]1C=C(CO)[C@@H](O)[C@H](O)[C@H]1O` (some centres unmarked) [Compound 46, Acarbose]: the remaining activity at 50 µM was 92%. The same measure, in the same setting: under `COc1c(N2CCNC(C)C2)c(F)cc2c(=O)c(C(=O)O)cn(C3CC3)c12` (centres unmarked) [Compound 47, Gatifloxacin] stands 98%; under `CN(C)c1cc(NC(=O)CNC(C)(C)C)c(O)c2c1C[C@H]1C[C@H]3[C@H](N(C)C)C(O)=C(C(N)=O)C(=O)[C@@]3(O)C(O)=C1C2=O` [Compound 48, Tigecycline], 59%; under `C=CC1=C(C(=O)O)N2C(=O)[C@@H](NC(=O)/C(=N\O)c3csc(N)n3)[C@H]2SC1` [Compound 49, Cefdinir], 72%. The same measure, in the same setting: under `NC(=O)N/N=C/c1ccc([N+](=O)[O-])o1` [Compound 50, Nitrofural] stands 104%. Still for that read-out and setting: with `Nc1ccc(S(N)(=O)=O)cc1` [Compound 51, Sulfanilamide] the figure was 118%; with `CO/N=C(\C(=O)N[C@@H]1C(=O)N2C(C(=O)OCOC(=O)C(C)(C)C)=C(/C=C\c3scnc3C)CS[C@H]12)c1csc(N)n1` [Compound 52, Cefditoren Pivoxil], 104%; with `CC[C@H]1OC(=O)[C@H](C)[C@@H](O[C@H]2C[C@@](C)(OC)[C@@H](O)[C@H](C)O2)[C@H](C)[C@@H](O[C@@H]2O[C@H](C)C[C@H](N(C)C)[C@H]2O)[C@](C)(O)C[C@@H](C)CN(C)[C@H](C)[C@@H](O)[C@]1(C)O` [Compound 53, Azithromycin], 109%. As to `NC(=O)c1cccnc1` [Compound 54, Nicotinamide (Vitamin B3)], the “XT-I Activity [%]” value was 116%. Turning to `C[C@H]1COc2c(N3CCN(C)CC3)c(F)cc3c(=O)c(C(=O)O)cn1c23` [Compound 55, Levofloxacin], the remaining activity at 50 µM worked out at 111%. The same measure, in the same setting: under `COc1ccc2[nH]cc(CCNC(C)=O)c2c1` [Compound 56, Melatonin] stands 99%; under `C[C@@H]1CC[C@H]2[C@@H](C)C(=O)O[C@@H]3O[C@@]4(C)CC[C@@H]1[C@]32OO4` [Compound 57, Artemisinin], 93%. Same read-out and setting: with `O=c1c(-c2ccc(O)cc2)coc2cc(O)cc(O)c12` [Compound 58, Genistein] the figure was 94%; with `CC(=O)NC[C@H]1CN(c2ccc(N3CCOCC3)c(F)c2)C(=O)O1` [Compound 59, Linezolid], 103%. Still for that read-out and setting: under `Clc1ccccc1C(c1ccccc1)(c1ccccc1)n1ccnc1` [Compound 60, Clotrimazole] stands 101%; under `Nc1ncnc2c1ncn2[C@@H]1O[C@H](CO)[C@@H](O)[C@H]1O` [Compound 61, Adenosine], 103%; under `C[C@]12CCC(=O)C=C1CC[C@@H]1[C@@H]2[C@@H](O)C[C@@]2(C)[C@H]1CC[C@]2(O)C(=O)CO` [Compound 62, Hydrocortisone], 122%. On to `Nc1ccc(S(=O)(=O)Nc2ncccn2)cc1` [Compound 63, Sulfadiazine], for which the remaining activity at 50 µM was determined as 108%. On the same count and under the same terms, with `Oc1c(Cl)cc(Cl)c2cccnc12` [Compound 64, Chloroxine] the figure was 121%; with `CC1=CC(=O)c2ccccc2C1=O` [Compound 66, Menadione], 106%. With `COc1cccc2c1C(=O)c1c(O)c3c(c(O)c1C2=O)C[C@@](O)(C(=O)CO)C[C@@H]3O[C@H]1C[C@H](N)[C@H](O)[C@H](C)O1.Cl` [Compound 67, Doxorubicin (Adriamycin) HCl], the “XT-I Activity [%]” value stood at 113%.

As for `C[C@@H](c1ncncc1F)[C@](O)(Cn1cncn1)c1ccc(F)cc1F` [Compound 70, Voriconazole], the remaining activity at 50 µM is 94%.

Turning to `CCN1CCN(C(=O)N[C@@H](C(=O)N[C@@H]2C(=O)N3C(C(=O)O)=C(CSc4nnnn4C)CS[C@H]23)c2ccc(O)cc2)C(=O)C1=O` [Compound 71, Cefoperazone], the remaining activity at 50 µM worked out at 83%. On the same count and under the same terms, under `CC1=C(/C=C/C(C)=C/C=C/C(C)=C/C(=O)O)C(C)(C)CCC1` [Compound 72, Tretinoin] stands 84%. As for `CC(=O)[C@H]1CC[C@H]2[C@@H]3CCC4=CC(=O)CC[C@]4(C)[C@H]3CC[C@]12C` [Compound 73, Progesterone], the remaining activity at 50 µM is 113%.

For `C[C@H](CCC(=O)O)[C@H]1CC[C@H]2[C@@H]3[C@H](O)C[C@@H]4C[C@H](O)CC[C@]4(C)[C@H]3CC[C@]12C` [Compound 75, Chenodeoxycholic Acid], the remaining activity at 50 µM turned out to be 113%. Regarding `Cc1ncc([N+](=O)[O-])n1CCO` [Compound 76, Metronidazole], the remaining activity at 50 µM stood at 109%. Take `COc1c2occc2cc2ccc(=O)oc12` [Compound 77, Methoxsalen]: the remaining activity at 50 µM is 107%. `O=c1[nH]cc(F)c(=O)[nH]1` [Compound 78, Fluorouracil (5-Fluoracil, 5-FU)]: the “XT-I Activity [%]” value was determined as 137%. On to `C/C(=C\c1csc(C)n1)[C@@H]1C[C@@H]2O[C@@H]2CCC[C@H](C)[C@H](O)[C@@H](C)C(=O)C(C)(C)[C@@H](O)CC(=O)O1` [Compound 79, Epothilone A], for which the remaining activity at 50 µM stood at 119%.

For the molecule `CCCCCCCCCC(=O)N[C@@H](Cc1c[nH]c2ccccc12)C(=O)N[C@H](CC(N)=O)C(=O)N[C@@H](CC(=O)O)C(=O)N[C@@H]1C(=O)NCC(=O)N[C@@H](CCCN)C(=O)N[C@@H](CC(=O)O)C(=O)N[C@H](C)C(=O)N[C@@H](CC(=O)O)C(=O)NCC(=O)N[C@H](CO)C(=O)N[C@@H]([C@H](C)CC(=O)O)C(=O)N[C@@H](CC(=O)c2ccccc2N)C(=O)O[C@@H]1C` [Compound 80, Daptomycin], the remaining activity at 50 µM is 86%. Same read-out and setting: with `N[C@@H](C(=O)N[C@@H]1C(=O)N2C(C(=O)O)=C(Cl)CS[C@H]12)c1ccccc1` [Compound 81, Cefaclor] the figure was 71%; with `COc1cnc(NS(=O)(=O)c2ccc(N)cc2)nc1` [Compound 82, Sulfameter], 126%. Same read-out and setting: under `C[C@]12CC[C@@H]3c4ccc(O)cc4CC[C@H]3[C@@H]1CCC2=O` [Compound 83, Estrone] stands 120%; under `C[C@]12CC[C@@H]3c4ccc(O)cc4CC[C@H]3[C@@H]1CC[C@@H]2O` [Compound 84, Estradiol], 128%. The same measure, in the same setting: with `CCc1cc(C(N)=S)ccn1` [Compound 85, Ethionamide] the figure was 130%.
